According to article PMC5013292, “A Putative Bacterial ABC Transporter Circumvents the Essentiality of Signal Peptidase” (mBio, 2016):

Key:
[1] = system: SpsB V49L mutant of USA300 Δmcr cro/cI(Q16stop) SAUSA300_0352(K44A); assay: MIC fold increase, SpsB V49L mutant; format: cell-based, S. aureus
Method: (§1) MICs were determined according to the standard protocol from the Clinical and Laboratory Standards Institute ([23]). Briefly, S. aureus bacteria were harvested from regular MHA plates that had been cultured for ~20 h at 37°C. Serial dilutions of compound 103 were incubated with bacteria at approximately 10^6 CFU (CFU)/ml in MHB in round-bottom 96 well plates (Corning, Corning, NY) for 22 h at 37°C. MICs were determined by the lowest concentration of compound 103 showing absence of growth by visual inspection.

[2] = system: SpsB H68Y mutant of USA300 Δmcr cro/cI(Q16stop) SAUSA300_0352(K44A); assay: MIC fold increase, SpsB H68Y mutant; format: cell-based, S. aureus
Method: as §1

[3] = system: Δmcr cro/cI(Q16stop) ΔSAUSA300_0351 (GNE0209); assay: MIC fold increase, GNE0209; format: cell-based, S. aureus
Method: as §1
(§2) To generate mutations in SAUSA300_0351, _0352, and _0353 genes by homologous recombination, we transformed USA300 Δmcr using targeting constructs created in the vector pIMAY ([24]). To generate mutations in SAUSA300_0351, _0352, and _0353 genes in a cro/cI mutant background, we selected colonies from USA300 Δmcr cultured on plates containing fourfold the MIC of compound 103. Sequencing of PCR products of the cro/cI gene from resistant colonies yielded a clone with a Q16stop codon mutation in cro/cI (strain GNE0173). We further mutated SAUSA300_0351, _0352, and _0353 in this USA300 Δmcr cro/cI (Q16stop) clone to study the contributions of these three genes to cro/cI-mediated resistance.

[4] = system: USA300 WT(pMK4) (GNE0163); assay: MIC fold increase, GNE0163; format: cell-based, S. aureus
Method: as §1

[5] = system: cro/cI(−62G→A)(pcro/cI-cro/cI) (GNE0100); assay: MIC fold increase, GNE0100; format: cell-based, S. aureus
Method: as §1

[6] = system: SpsB V167F mutant of USA300 Δmcr cro/cI(Q16stop) SAUSA300_0352(K44A); assay: MIC fold increase, SpsB V167F mutant; format: cell-based, S. aureus
Method: as §1

[7] = system: SpsB Y30D mutant of USA300 Δmcr cro/cI(Q16stop) SAUSA300_0352(K44A); assay: MIC fold increase, SpsB Y30D mutant; format: cell-based, S. aureus
Method: as §1

[8] = system: S. aureus USA300 SpsB-low; assay: MIC, USA300 SpsB-low; format: cell-based; settings: result in words
Method: as §1
A strain of USA300 Δmcr overexpressing SpsB (USA300 SpsB-high; GNE0028) was engineered by cloning SpsB under the constitutive sarA promoter into vector pMK4, resulting in SpsB expression that was ~20-fold higher than the wild-type level as determined by Western blotting. A USA300 Δmcr strain that underexpresses SpsB (USA300 SpsB-low; […]) was generated by genomic incorporation of spsB under the isopropyl-β-D-thiogalactopyranoside (IPTG)-sensitive promoter spac; without IPTG, this strain expresses SpsB at ~5% of the wild-type level as determined by Western blotting.

[9] = system: cro/cI(M1V)(pMK4) (GNE0107); assay: MIC fold increase, GNE0107; format: cell-based, S. aureus
Method: as §1

[10] = system: SpsB Y30N mutant of USA300 Δmcr cro/cI(Q16stop) SAUSA300_0352(K44A); assay: MIC fold increase, SpsB Y30N mutant; format: cell-based, S. aureus
Method: as §1

[11] = system: USA300 SAUSA300_0352(K44A) (strain GNE0174); assay: Frequency of spontaneous resistance, GNE0174; format: cell-based, S. aureus; settings: K44A in SAUSA300_0352 in WT USA300 background; fourfold MIC; 37°C, 2 days; approximately 2 orders of magnitude reduced
Method: To determine the frequency of spontaneous resistance, suspensions containing approximately 5 × 10^9 CFU of S. aureus were cultured on MHA plates containing compound 103 at fourfold the MIC; serial dilutions were cultured in parallel on regular MHA to determine the actual number of CFU (input). The frequency of spontaneous resistance was defined as the number of viable colonies able to grow in the presence of compound 103 after culture at 37°C for 2 days (output) divided by input.
as §2

[12] = system: Δmcr cro/cI(Q16stop) Δ(SAUSA300_0351-SAUSA300_0352-SAUSA300_0353) (GNE0220); assay: MIC fold increase, GNE0220; format: cell-based, S. aureus
Method: as §1, §2

## CCCCc1ccc(-c2ccc(C(=O)N[C@@H](CCCCN)C(=O)N(C)[C@@H]3C(=O)N[C@@H](C)C(=O)N[C@H](C(=O)NCC(C)C(=O)O)Cc4ccc(O)c(c4)-c4cc3ccc4O)cc2)cc1 (stereo partly drawn) [Compound 103]
[1]
  MIC of compound 103 (fold increase versus MIC for USA300 WT): 4 fold
[2]
  MIC of compound 103 (fold increase versus MIC for USA300 WT): 8 fold
[3]; GNE0209
  MIC of compound 103 (fold increase versus MIC for USA300 WT): >32 fold
[3]; GNE0209, deletion of SAUSA300_0351, result in words
  resistance phenotype: had no effect on the resistance phenotype
[4]
  MIC of compound 103 (fold increase versus MIC for USA300 WT): 1.0 fold
[5]; GNE0100
  MIC of compound 103 (fold increase versus MIC for USA300 WT): >32 fold
[5]; GNE0100, plasmid-encoded WT cro/cI, result in words
  resistance phenotype: could not complement the phenotype
[6]
  MIC of compound 103 (fold increase versus MIC for USA300 WT): 8 fold
[7]
  MIC of compound 103 (fold increase versus MIC for USA300 WT): 8 fold
[8]
  MIC for a strain that underexpresses SpsB: reduced MIC
[9]
  MIC of compound 103 (fold increase versus MIC for USA300 WT): >32 fold
[10]
  MIC of compound 103 (fold increase versus MIC for USA300 WT): 4 fold
[11]
  frequency of spontaneous resistance: 2 × 10^−9
[12]; GNE0220
  MIC of compound 103 (fold increase versus MIC for USA300 WT): 2.0 fold
[12]; GNE0220, deletion of all 3 ABC transporter genes, result in words
  resistance phenotype: reversed the resistant phenotype
